In patent US8476283B2, “[6,5]—bicyclic GPR119 G protein-coupled receptor agonists” (Bristol-Myers Squibb Company, priority 2007, dated 2013) one finds IA and EC50 data, which are given here for 19 compounds.

Broadly, the EC50 is the midpoint of the concentration-response curve.

The target of this assay is T1, GPR119 (Homo sapiens, UniProt Q8TDV5).
T1 construct: expressed in transfected cells; host or cells: Flp-In-T-REx 293
T1 sequence (Q8TDV5 1-335): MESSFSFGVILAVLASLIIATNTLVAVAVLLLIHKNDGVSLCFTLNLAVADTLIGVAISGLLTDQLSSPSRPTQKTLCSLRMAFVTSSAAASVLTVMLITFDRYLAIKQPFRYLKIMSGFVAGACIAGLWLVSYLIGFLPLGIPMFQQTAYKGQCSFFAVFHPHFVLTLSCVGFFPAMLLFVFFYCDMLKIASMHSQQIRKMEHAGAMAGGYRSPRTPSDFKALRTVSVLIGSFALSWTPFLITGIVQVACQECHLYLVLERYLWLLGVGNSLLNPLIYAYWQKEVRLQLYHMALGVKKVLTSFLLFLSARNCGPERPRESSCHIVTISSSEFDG
The experiment in a line: Human Tet-Inducible cAMP Assay (hEC50, Table 1). The assay is classed as cell-based. Details: IA: scale not given here. The following applies: for IA: IA as printed beside hEC50 (not defined in the text); for EC50: human GPR119 agonist activity, cAMP. How it is done:
The in vitro modulation of GPR119 was determined as follows.
Human Tet-Inducible cAMP Assay
Cell lines using the Flp-In-T-REx 293 tetracycline inducible gene expression system are cultured in culture medium comprising the following components: DMEM#11965, 10% FBS, 2 mM L-glutamine, 200 ug/ml Hygromycin B, and 15 ug/ml blasticidin.
For cAMP assays, cells are plated on 96 well plates (e.g., BD Falcon: REF 353948, black side, clear bottom, TC surface) at a density of about 4.5×10^4 cells per well in growth medium containing 1.0 ug/ml tetracycline (1.0 mg/ml stock). The cells are then incubated for 48 hours at 37° C.
Following the incubation, the growth medium is removed from the wells and the wells rinsed (once) with the assay buffer included in the Hit Hunter cAMP kit (100 μl/well). Following the wash, 20 μl of assay buffer is added to each well, followed by addition of 10 μl of a 3× concentration compound working solution. The solution is then mixed. The final concentration range of compound is from about 10^−5M to about 10^−11M. The reagents are then incubated at 37° C. at 5% CO2 for 1 hour.
The manufacturer's protocol may be followed for cAMP determination. The Hit Hunter cAMP kit protocol is outlined for the HIT-T15 cAMP assays described above.

Take `CC(C)(C)OC(=O)N1CCC(n2nnc3c(Nc4ccc(S(C)(=O)=O)cc4F)nccc32)CC1` [Example 1, tert-Butyl 4-(4-(2-fluoro-4-(methylsulfonyl)phenylamino)-1H-[1,2,3]triazolo[4,5-c]pyridin-1-yl)piperidine-1-carboxylate]: the IA is 0.55 and the EC50 was 1390 nM. The like results for `CC(C)(C)OC(=O)N1CCC(n2nnc3c(Oc4ccc(S(C)(=O)=O)cc4)nccc32)CC1` [Example 2, tert-Butyl 4-(4-(4-(methylsulfonyl)phenoxy)-1H-[1,2,3]triazolo[4,5-c]pyridin-1-yl)piperidine-1-carboxylate] were, in that order, 0.29 and 3550 nM. The compound `CC(C)(C)OC(=O)N1CCC(n2nnc3c(Nc4ccc(S(C)(=O)=O)cc4F)ncnc32)CC1` [Example 3, tert-Butyl 4-(7-(2-fluoro-4-(methylsulfonyl)phenylamino)-3H-[1,2,3]triazolo[4,5-d]pyrimidin-3-yl)piperidine-1-carboxylate] registered an EC50 of 19.5 nM. For `CC(C)(C)OC(=O)N1CCC(n2cnc3c(Nc4ccc(C#N)cc4F)ncnc32)CC1` [Example 4, tert-Butyl 4-(6-(4-cyano-2-fluorophenylamino)-9H-purin-9-yl)piperidine-1-carboxylate], the IA was 0.70 and the EC50 turned out to be 287 nM. In turn, `CC(C)(C)OC(=O)N1CCC(n2nnc3c(Nc4ccc(C#N)cc4Cl)nccc32)CC1` [Example 5, tert-Butyl 4-(4-(2-chloro-4-cyanophenylamino)-1H-[1,2,3]triazolo[4,5-c]pyridin-1-yl)piperidine-1-carboxylate] returned an IA of 0.27 and an EC50 of 411 nM. `CC(C)OC(=O)N1CCC(n2nnc3c(Nc4ccc(S(C)(=O)=O)cc4F)ncnc32)CC1` [Example 6, iso-Propyl 4-(7-(2-fluoro-4-(methylsulfonyl)phenylamino)-3H-[1,2,3]triazolo[4,5-d]pyrimidin-3-yl)piperidine-1-carboxylate] came in with an IA of 0.86 and an EC50 of 140 nM. Consider `CC(C)OC(=O)N1CCC(n2nnc3c(Nc4ccc(S(C)(=O)=O)cc4Cl)ncnc32)CC1` [Example 7, iso-Propyl 4-(7-(2-chloro-4-(methylsulfonyl)phenylamino)-3H-[1,2,3]triazolo[4,5-d]pyrimidin-3-yl)piperidine-1-carboxylate], for which the IA was 0.68 and the half-maximal effective concentration (EC50) was 74.9 nM.

Consider `CS(=O)(=O)c1ccc(Nc2ncnc3c2nnn3C2CCN(c3ncccn3)CC2)c(F)c1` [Example 8, N-(2-Fluoro-4-(methylsulfonyl)phenyl)-3-(1-(pyrimidin-2-yl)piperidin-4-yl)-3H-[1,2,3]triazolo[4,5-d]pyrimidin-7-amine], for which the IA was determined as 0.67 and the EC50 was 218 nM. With `CCc1cnc(N2CCC(n3nnc4c(Nc5ccc(S(C)(=O)=O)cc5F)ncnc43)CC2)nc1` [Example 9, 3-(1-(5-Ethylpyrimidin-2-yl)piperidin-4-yl)-N-(2-fluoro-4-(methylsulfonyl)phenyl)-3H-[1,2,3]triazolo[4,5-d]pyrimidin-7-amine], the IA is listed as 0.56 and a half-maximal effect (EC50) was put at 263 nM. The compound `CC(C)OC(=O)N1CCC(n2cnc3c(Nc4ccc(S(C)(=O)=O)cc4F)ncnc32)CC1` [Example 10, iso-Propyl 4-(6-(2-fluoro-4-(methylsulfonyl)phenylamino)-9H-purin-9-yl)piperidine-1-carboxylate] had an IA of 0.79 and an EC50 of 407 nM. The like results for `CS(=O)(=O)c1ccc(Nc2ncnc3c2ncn3C2CCN(c3ncccn3)CC2)c(F)c1` [Example 11, N-(2-Fluoro-4-(methylsulfonyl)phenyl)-9-(1-(pyrimidin-2-yl)piperidin-4-yl)-9H-purin-6-amine] were, in that order, 0.81 and 367 nM. Taken in the same sequence, the figures for `CS(=O)(=O)c1ccc(Nc2ncnc3c2cnn3C2CCN(C(=O)OCc3ccccc3)CC2)c(F)c1` [Example 12, Benzyl 4-(4-(2-fluoro-4-(methylsulfonyl)phenylamino)-1H-pyrazolo[3,4-d]pyrimidin-1-yl)piperidine-1-carboxylate] were 0.47 and 203 nM. As to `CC(C)OC(=O)N1CCC(n2ncc3c(Nc4ccc(S(C)(=O)=O)cc4F)ncnc32)CC1` [Example 13, Isopropyl 4-(4-(2-fluoro-4-(methylsulfonyl)phenylamino)-1H-pyrazolo[3,4-d]pyrimidin-1-yl)piperidine-1-carboxylate], the IA is 0.69 and the EC50 amounted to 308 nM. Taken in the same sequence, the figures for `CS(=O)(=O)c1ccc(Nc2ncnc3c2cnn3C2CCN(c3ncccn3)CC2)c(F)c1` [Example 14, N-(2-Fluoro-4-(methylsulfonyl)phenyl)-1-(1-(pyrimidin-2-yl)piperidin-4-yl)-1H-pyrazolo[3,4-d]pyrimidin-4-amine] were 0.76 and 545 nM.

In the case of `CCc1cnc(N2CCC(n3ncc4c(Nc5ccc(S(C)(=O)=O)cc5F)ncnc43)CC2)nc1` [Example 15, 1-(1-(5-Ethylpyrimidin-2-yl)piperidin-4-yl)-N-(2-fluoro-4-(methylsulfonyl)phenyl)-1H-pyrazolo[3,4-d]pyrimidin-4-amine], the IA was determined as 0.94 and the EC50 turned out to be 76.2 nM. Taken in the same sequence, the figures for `CCCc1cnc(N2CCC(n3ncc4c(Nc5ccc(S(C)(=O)=O)cc5F)ncnc43)CC2)nc1` [Example 16, N-(2-Fluoro-4-(methylsulfonyl)phenyl)-1-(1-(5-propylpyrimidin-2-yl)piperidin-4-yl)-1H-pyrazolo[3,4-d]pyrimidin-4-amine] were 1.11 and 81.8 nM. `Cc1ncccc1Oc1ncnc2c1cnn2C1CCN(C(=O)OCc2ccccc2)CC1.Cl` [Example 17, Benzyl 4-(4-(2-methylpyridin-3-yloxy)-1H-pyrazolo[3,4-d]pyrimidin-1-yl)piperidine-1-carboxylate, hydrochloride salt] had an IA of 0.31 and an EC50 of 1900 nM. Regarding `Cc1ncccc1Oc1ncnc2c1cnn2C1CCN(C(=O)OC(C)C)CC1.Cl` [Example 18, Isopropyl 4-(4-(2-methylpyridin-3-yloxy)-1H-pyrazolo[3,4-d]pyrimidin-1-yl)piperidine-1-carboxylate, hydrochloride salt], the IA turned out to be 0.17 and the midpoint of the response, the EC50, lay at 2720 nM. The compound `CC(C)OC(=O)N1CCC(n2ncc3c(Oc4cccnc4C#N)ncnc32)CC1` [Example 19, Isopropyl 4-(4-(2-cyanopyridin-3-yloxy)-1H-pyrazolo[3,4-d]pyrimidin-1-yl)piperidine-1-carboxylate] showed an IA of 0.13 and an EC50 of 505 nM.
